Patent US9676691B2, “Method for producing indanone derivatives” (SYMRISE AG, priority 2011, dated 2017)

Assays:
[1] = Examination of the crystallisation in emulsion; type: physicochemical; conditions: with respect to the entire mass of the cosmetic formulation (0.025% by weight)
Excerpt: According to the indications in the following Table 1, two cosmetic formulations were produced as emulsions [E(I) and E (II)]. The product from example 1a contained pure 2-benzylidene-3,3-dimethyl-5,6-dimethoxy-1-indanone and was used in the emulsion E(I). For the emulsion E(II), 2-benzylidene-3,3-dimethyl-5,6-dimethoxy-1-indanone from example 1a was used, but it was contaminated with benzyl-3,3-dimethyl-5,6-dimethoxy-1-indanone in such a manner that a 5% by weight contamination was present, with respect to the total mass of the contaminated product.
The emulsions were covered and left to stand at ambient temperature for 3 days. Subsequently, the emulsions were examined under a microscope. Emulsion E(I) had no crystals. In emulsion E(II), crystal seeds having a size of from 4 to 7 μm were able to be observed.

[2] = Solubility in cosmetic oils; type: physicochemical; conditions: in contrast to the target product

proportion of by-product that initiates the formation of crystallisation seeds in the cosmetic formulation [1]: 250 ppm
Structure (SMILES): COc1cc2c(cc1OC)C(C)(C)C(Cc1ccccc1)C2=O (centres unmarked) [2-benzyl-3,3-dimethyl-5,6-dimethoxy-1-indanone]
solubility in cosmetic oils [2]: cannot be readily dissolved in cosmetic oils
